In patent publication US20070134261A1, “Effectors of innate immunity” (priority 2001, published 2007):
Like-named read-outs stand apart in the source and are kept apart here.

Legend:
[1] = system: human bronchial epithelial cells (16HBEo14); experiment: Induction of IL-8 in HBE cells; assay type: cell-based; settings: for IL-8: 8 h
Protocol: The murine macrophage cell line RAW 264.7, THP-1 cells (human monocytes), a human epithelial cell line (A549), human bronchial epithelial cells (16HBEo14), and whole human blood were used. HBE cells were grown in MEM with Earle's. THP-1 cells were grown and maintained in RPMI 1640 medium. The RAW and A549 cell lines were maintained in DMEM supplemented with 10% fetal calf serum. […] DMEM was aspirated from cells grown overnight and replaced with fresh medium. After incubation of the cells with peptide, the release of chemokines into the culture supernatant was determined by ELISA (R&D Systems, Minneapolis, Minn.).

[2] = system: whole human blood; assay type: cell-based; settings: 4 hr (0 μg/ml: 3205)
[3] = system: HBE cells; experiment: Phosphorylation of MAP kinases (Western blot) in HBE cells; assay type: cell-based, human
Protocol: The cells were seeded at 2.5×10^5−5×10^5 cells/ml and left overnight. They were washed once in media, serum starved in the morning (serum free media—4 hrs). The media was removed and replaced with PBS, then sat at 37° C. for 15 minutes and then brought to room temp for 15 minutes. Peptide was added (concentrations 0.1 μg/ml−50 μg/ml) or H2O and incubated 10 min. The PBS was very quickly removed and replaced with ice-cold radioimmunoprecipitation (RIPA) buffer with inhibitors (NaF, B-glycerophosphate, MOL, Vanadate, PMSF, Leupeptin Aprotinin). The plates were shaken on ice for 10-15 min or until the cells were lysed and the lysates collected. The procedure for THP-1 cells was slightly different; more cells (2×10^6) were used. They were serum starved overnight, and to stop the reaction 1 ml of ice-cold PBS was added then they sat on ice 5-10 min, were spun down then resuspended in RIPA. Protein concentrations were determined using a protein assay (Pierce, Rockford, Ill.). Cell lysates (20 μg of protein) were separated by SDS-PAGE and transferred to nitrocellulose filters. […] The freshly harvested cells were consistently >99% viable as assessed by their ability to exclude trypan blue. […] Protein content was analyzed and approximately 30 μg of each sample was loaded in a 12% SDS-PAGE gel. […] Phosphorylation was detected with phosphorylation-specific antibodies.

SMILES: CC[C@H](C)[C@H](N)C(=O)N[C@@H](CC(C)C)C(=O)N1CCC[C@H]1C(=O)N[C@@H](Cc1c[nH]c2ccccc12)C(=O)N[C@@H](CCCCN)C(=O)N[C@@H](Cc1c[nH]c2ccccc12)C(=O)N1CCC[C@H]1C(=O)N[C@@H](Cc1c[nH]c2ccccc12)C(=O)N[C@@H](Cc1c[nH]c2ccccc12)C(=O)N1CCC[C@H]1C(=O)N[C@@H](Cc1c[nH]c2ccccc12)C(=O)N[C@@H](CCCNC(=N)N)C(=O)N[C@@H](CCCNC(=N)N)C(N)=O [SEQ ID NO: 2]
- induction of IL-8 [1]: significantly induced IL-8
- IL-8 ([1]; peptide 0.1 μg/ml): 670 ± 155 pg/mL
- IL-8 ([1]; peptide 1 μg/ml): 712 ± 205 pg/mL
- IL-8 ([1]; peptide 10 μg/ml): 941 ± 15 pg/mL
- IL-8 ([1]; peptide 50 μg/ml): 1490 ± 715 pg/mL
- IL-8 ([2]; 10 μg/ml peptide + E. coli O111:B4 LPS): 1912 pg/mL
- IL-8 ([2]; 50 μg/ml peptide + E. coli O111:B4 LPS): 1458 pg/mL
- phosphorylation of p38 and ERK1/2 [3]: dose dependent phosphorylation
